Tests used:
Solubility in water = format: physicochemical
Text: (§1) In another substrate embodiment, the dye compounds are fluorinated dyes for which R^11 is H, that are substrates for oxidative enzymes and other reactive oxidizing agents, particularly for peroxidase enzymes. […] Unlike their non-fluorinated analogs, fluorinated dihydrofluorescein and dihydrorhodol, are stable in aqueous solutions without the use of blocking groups on the hydroxyl or amine functions that typically reduce aqueous solubility. For example, Compound 84 (4,5,6,7-tetrafluorodihydrofluorescein, Example 85) is soluble in water to at least 2 mM, while existing diacetate fluorogenic peroxidase substrates are typically soluble only in the single-digit μM concentration range.

[1] = Stability toward hydrogen peroxide without peroxidase; format: physicochemical; details: absence of horseradish peroxidase, 1 mM substrate, OPD buffer pH 5.5
Text: as §1
(§2) A 2 mM solution (0.5 mL) of TFDHF is prepared in water. OPD buffer (0.5M Phosphate-citrate buffer) without hydrogen peroxide (pH 5.5, 0.5 mL) is added, resulting in a 1 mM concentration of substrate. Minor background fluorescence, indicating the presence of some contaminating oxidized dye, serves to provide a fluorescence signal at time 0. […] After incubation at room temperature in darkness for 25 minutes, the reaction solution is diluted 1:20 into potassium phosphate buffer at pH 8, and fluorescence emission spectra are recorded.

[2] = target: T1, Horseradish Peroxidase (HRP) (Armoracia rusticana, UniProt P00433); experiment: Detection of horseradish peroxidase activity in vitro; format: biochemical; details: 1 mM substrate, OPD buffer with hydrogen peroxide, HRP 1 μL, 10^-4 Units
T1 sequence (P00433 31-353): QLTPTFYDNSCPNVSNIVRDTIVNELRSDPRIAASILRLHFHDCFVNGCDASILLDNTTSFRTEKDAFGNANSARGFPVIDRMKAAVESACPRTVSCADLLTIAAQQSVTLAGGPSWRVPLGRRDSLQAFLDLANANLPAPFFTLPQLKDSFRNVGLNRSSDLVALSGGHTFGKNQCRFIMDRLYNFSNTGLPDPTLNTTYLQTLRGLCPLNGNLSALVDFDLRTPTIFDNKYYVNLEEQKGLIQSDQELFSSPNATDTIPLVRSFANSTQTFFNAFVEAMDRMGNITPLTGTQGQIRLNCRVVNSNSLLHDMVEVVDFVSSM
Experimental: as §2, with “OPD buffer (0.5M Phosphate-citrate buffer) without hydrogen peroxide (pH 5.5, 0.5 mL) is added, resulting in a 1 mM concentration of substrate.” left out

[3] = Fluorescence response of heavy metal ion indicator; format: binding; details: 1 micromolar compound, 5 micromolar Cu(I), 5 mM MOPS buffer pH 7.2
Experimental: The tetramethyl ester intermediate is then dissolved in 15 mL 1,4-dioxane and concentrated ammonium hydroxide (0.8 mL) is added in one portion. The reaction mixture is centrifuged and the orange pellet is dissolved in 5 mL pure water, then applied to a column of lipophilic SEPHADEX […] resin and eluted with pure water. Pure column fractions are combined, frozen and lyophilized to give phenanthroline conjugate, dipotassium salt (Compound 106) as an orange powder. κ=54,479 cm^-1 M^-1 in 10 mM EGTA, 100 mM KCl, 10 mM MOPS buffer at pH 7.20.

Row | Structure (SMILES) | soluble in water (Solubility in water) | reaction with hydrogen peroxide alone [1] | reaction with hydrogen peroxide alone ([1]; listed as TFDHF) | fluorescence production on addition of HRP [2] | decrease in emission intensity at 523 nm [3] [fold]
1 | O=C(O)c1c(F)c(F)c(F)c(F)c1C1c2ccc(O)cc2Oc2cc(O)ccc21 [Compound 84, 4,5,6,7-tetrafluorodihydrofluorescein] | at least 2 mM | stable toward reaction of hydrogen peroxide during the period of analysis | no detectable fluorescence increase | immediate production of bright yellow fluorescence | 
2 | O=C(Nc1cc2cccnc2c2ncccc12)c1ccc2c(c1)C(=O)OC21c2cc(F)c(O)cc2Oc2cc(O)c(F)cc21 [Compound 106] |  |  |  |  | 5
